Data published in patent US9074016B2, “G protein-related kinase mutants in essential hypertension” (priority 1998, dated 2015).
Entries after “also recorded” stand apart in the source; their conditions may differ.

How the values were obtained:
[1] = test system: D1 receptor / adenylyl cyclase coupling in renal proximal tubule cells; assay: cAMP accumulation in renal proximal tubule cells; format: cell-based, human; settings: normotensive versus hypertensive subjects
Description: Cultures of renal proximal tubule cells from histologically-verified normal kidney sections (5×10^5 cells/well in 24 well plastic plates coated with 0.075% Type I collagen) were incubated at 37° C. in […] and grown in a serum-free medium consisting of a 1:1 mixture of Dulbecco's Modified Eagle's medium and Ham's F12 medium supplemented with selenium (5 ng/ml), insulin (5 μg/ml), transferrin (5 μg/ml), hydrocortisone (36 ng/ml), triiodothyronine (4 pg/ml), and epidermal growth factor (10 ng/ml). When sub-confluent (90-95%), the cells were sub-cultured (passages 6-8) for use in experimental protocols using trypsin-EDTA (0.05%, 0.02%). The culture conditions are conducive for growth of human renal proximal tubules that retain characteristics of renal proximal tubule cells, Sanada, et al., J. Invest. Med. 45:277 A (1997).
The cells were washed twice with Dulbecco's phosphate buffered saline (D-PBS), after which 1 mM 3-isobutyl-1-methyl-xanthine was added to each well. […] Then, the cells were washed twice with D-PBS and frozen at −80° C. and the cells were further lysed with 0.1N HCl. cAMP concentration was measured by radioimmunoassay. […] Protein concentration was measured with the BCA protein assay kit (Pierce Chem. Co., Rockford, Ill.). […]

D1 receptor [2] = molecular target: T1, D1 receptor (Homo sapiens, UniProt P21728); assay: Serine phosphorylation of D1 receptor (immunoprecipitation / anti-phosphoserine immunoblot) in renal proximal tubule cells; format: cell-based; settings: normotensive subjects
T1 construct: endogenous in cells; host or cells: renal proximal tubule cells in culture from normotensive and hypertensive human subjects
Description: Proximal tubule cells were incubated with vehicle, fenoldopam, sense, scrambled or antisense propyne/phosphorothioate oligonucleotides (5 nM) as described above. The membranes were lyzed with ice cold lysis buffer (PBS with 1% NP40, 0.5% sodium deoxycholate, 0.1% SDS, 1 mM EDTA, 1 mM EGTA, 1 mM sodium vanadate, 1 mM NaF, 1 mM PMSF, 10 μg/ml aprotinin and 10 μg/ml leupeptin). The lysates were incubated with IgG-purified anti D1 receptor antibody on ice for 1 hr and protein-A agarose for 12 hrs with rocking at 4° C. The proteins separated by SDS-polyacrylamide gel electrophoresis were electrophoretically transferred onto nitrocellulose membranes. The transblot sheets blocked with 5-10% nonfat dry milk in 10 mM Tris-HCl, pH 7.5, 150 mM NaCl, and 0.1% Tween-20 were incubated with diluted affinity-purified polyclonal anti-phosphoserine antibody (Zymed Lab, San Francisco, Calif.); Sanada, et al., supra. In some cases, the cells were labeled with ^32P and immunoprecipitated with anti D1 receptor antibody. The autoradiograms and immunoblots, visualized with ECL system (Amersham, Arlington Heights, Il) were quantified by densitometry. Sanada, et al., supra.

[3] = test system: GRK activity in renal proximal tubule cells; assay: GRK activity (phosphorylation of rhodopsin) in extracts of renal proximal tubule cells; format: cell-based, human
Description: Human kidneys were obtained as fresh surgical specimens from patients who had unilateral nephrectomy due to renal carcinoma. The patient records of the subjects were reviewed and classified into those with either normal blood pressure (n=9) or essential hypertension (n=14). Subjects with systolic blood pressures less than 140 mm Hg and diastolic blood pressures less than 90 mm Hg were considered normotensive. Subjects with systolic blood pressures equal to or greater than 140 mm Hg or diastolic blood pressures equal to or greater than 90 mm Hg and/or on antihypertensive medications were considered hypertensive. […]
GRK activity was measured according to Benovic, Methods Enzymol. […] The gels were subjected to autoradiography, and the phosphorylated rhodopsin was quantified using both densitometry and radioactive counting of the excised bands at the appropriate size. GRK activity was also measured in the presence or absence of a GRK isoform antibody.

D1 receptor [4] = assay: cAMP production in CHO cells transfected with D1 receptor and GRK4γ; format: cell-based
Description: The cells were washed twice with Dulbecco's phosphate buffered saline (D-PBS), after which 1 mM 3-isobutyl-1-methyl-xanthine was added to each well. The cells were incubated at 37° C. for 30 minutes with or without drugs: dopamine and the D1-like receptor agonist, fenoldopam, the D1-like receptor antagonist, SCH23390 (Research Biochemicals International, Natick, Mass.), and forskolin (Sigma Chemical Co., St. Louis, Mo.). Then, the cells were washed twice with D-PBS and frozen at −80° C. and the cells were further lysed with 0.1N HCl. cAMP concentration was measured by radioimmunoassay. […] Protein concentration was measured with the BCA protein assay kit (Pierce Chem. Co., Rockford, Ill.).
The rat D1 (rD1) or human D1 (hD1) receptor cDNA was subcloned in the expression vector pPUR (Clontech, Palo Alto, Calif.) or pcDNA3.1/Zeo (Invitrogen, Carlsbad, Calif.), respectively, between EcoRland XbaI sites. The resulting constructs were used to stably transfect CHO cells expressing the pTet-Off regulator plasmid (Clontech, Palo Alto, Calif.) using calcium phosphate. […] GRK4γ and GRK4δcDNAs, obtained from RT/PCR of mRNA from human kidney cortex were subcloned into a pTet-Off response plasmid (pTRE-rD1 or pTRE-hD1 and pTK-Hyg mixed in a 20:1 ratio, respectively) (Clontech, Palo Alto, Calif.).
GRK4δ was used for comparison.

T1 sequence (P21728 whole entry): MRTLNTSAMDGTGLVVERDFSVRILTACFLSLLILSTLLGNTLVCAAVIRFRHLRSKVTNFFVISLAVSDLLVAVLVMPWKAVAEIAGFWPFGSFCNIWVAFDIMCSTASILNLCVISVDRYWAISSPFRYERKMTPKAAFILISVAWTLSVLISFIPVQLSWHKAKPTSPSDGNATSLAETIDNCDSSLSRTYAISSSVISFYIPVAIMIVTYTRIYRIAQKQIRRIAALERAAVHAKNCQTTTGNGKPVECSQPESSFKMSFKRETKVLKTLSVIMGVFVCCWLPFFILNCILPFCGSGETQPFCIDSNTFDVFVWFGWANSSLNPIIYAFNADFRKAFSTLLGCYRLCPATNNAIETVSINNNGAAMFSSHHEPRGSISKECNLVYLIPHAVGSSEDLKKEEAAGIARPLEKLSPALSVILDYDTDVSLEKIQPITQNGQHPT

Oc1ccc(C2CNCCc3c2cc(O)c(O)c3Cl)cc1 (centres unmarked) [fenoldopam]
cAMP accumulation [1]: increased cAMP accumulation to a greater extent in renal proximal tubule cells from normotensive than from hypertensive subjects | quantity of serine-phosphorylated D1 receptor (D1 receptor [2]): increased the quantity of serine-phosphorylated D1 receptor | effect on GRK activity, assessed by the phosphorylation of rhodopsin ([3]; renal proximal tubule cells from hypertensive subjects): increased GRK activity | effect on GRK activity, assessed by the phosphorylation of rhodopsin ([3]; renal proximal tubule cells from normotensive subjects): had no effect on GRK activity; also recorded: failed to increase GRK activity | selectivity of action on cAMP production (D1 receptor [4]): selective for the D1 receptor
